Here are results for 14 compounds from patent US11149067B2, “Tailored cyclodepsipeptides as potent non-covalent serine protease inhibitors” (UNIVERSITÄT DUISBURG-ESSEN, priority 2017, dated 2021).

Each structure is given as a SMILES string. Bounds are passed on as bounds.

Assay [1] deals with human HTRA3 (Homo sapiens (Human), UniProt P83110). In words: Chromogenic enzyme activity assay, HTRA3.
The target of assay [2] is human HTRA1 (Homo sapiens (Human), UniProt Q92743). The assay is described as follows: Chromogenic enzyme activity assay, HTRA1.
The target in assay [3] is human pancreas chymotrypsin. The assay is described as follows: Chromogenic enzyme activity assay, chymotrypsin. The format is biochemical. Conditions: for Ki: human pancreas chymotrypsin, Table 2.
The target of assay [4] is human neutrophil elastase (Homo sapiens (Human), UniProt P08246). In words: Chromogenic enzyme activity assay, elastase. The format is biochemical. Conditions: for Ki: human neutrophil elastase.
For assay [5], the target named is human HTRA2 (Homo sapiens (Human), UniProt O43464). In words: Chromogenic enzyme activity assay, HTRA2. Conditions: for fold gain in HTRA2 potency relative to Ahp1: compared with Ahp1.
Assay [6] deals with bovine pancreas trypsin (Bos taurus (Bovine), UniProt P00760). The assay is described as follows: Chromogenic enzyme activity assay, trypsin. The format is biochemical. Conditions: Table 2.
The test system of assay [7] is human bone marrow-derived stromal cells (hBMSCs). In words: HTRA1-mediated hBMSC osteogenesis, matrix mineralization by Alizarin Red S staining. The format is cell-based. Conditions: 10 μM compound, with HTRA1 or inactive HTRA1 S328A. As for the experimental part: Human BMSCs (hBMSCs) (Lonza Verviers, Belgium) were maintained in normal growth medium consisting of Dulbecco's modified eagle medium (DMEM-low glucose, with Glutamax) (Thermo Fisher Scientific, Reinach, Switzerland), supplemented with 10% fetal bovine serum (FBS) (Bioswisstec, Schaffhausen, Switzerland) and penicillin (50 units mL^−1) and streptomycin (50 μg mL^−1), and used between passage 2 and 6. The osteogenic differentiation of hBMSCs was performed as previously described in the art. Briefly, hBMSCs were seeded at 10′000 cells cm-2 in 24-well cell culture plates, and incubated for up to 14 days in osteogenic medium consisting of normal growth medium supplemented with ascorbic acid (50 μM), β-glycerophosphate (10 mM) and dexamethasone (100 nM) (all from Sigma-Aldrich, Buchs, Switzerland). Cells were replenished with fresh medium every 3-4 days. […] Mineralized matrix deposition by hBMSC-derived bone forming cells was visualized using Alizarin Red S, and the amount of staining quantified by determining the absorption at 570 nm using a multiplate reader (Infinite M200, Tecan) following extraction with 10% cetylpyridinium chloride (Sigma-Aldrich).

Sequence of human neutrophil elastase (P08246 30-267): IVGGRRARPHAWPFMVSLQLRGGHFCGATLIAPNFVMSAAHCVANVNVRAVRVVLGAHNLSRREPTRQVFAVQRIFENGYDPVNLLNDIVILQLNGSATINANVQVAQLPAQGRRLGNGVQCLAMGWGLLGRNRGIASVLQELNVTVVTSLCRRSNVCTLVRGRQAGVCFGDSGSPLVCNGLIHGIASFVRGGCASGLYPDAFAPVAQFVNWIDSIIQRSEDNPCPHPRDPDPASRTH
Sequence of human HTRA1 (Q92743 158-480): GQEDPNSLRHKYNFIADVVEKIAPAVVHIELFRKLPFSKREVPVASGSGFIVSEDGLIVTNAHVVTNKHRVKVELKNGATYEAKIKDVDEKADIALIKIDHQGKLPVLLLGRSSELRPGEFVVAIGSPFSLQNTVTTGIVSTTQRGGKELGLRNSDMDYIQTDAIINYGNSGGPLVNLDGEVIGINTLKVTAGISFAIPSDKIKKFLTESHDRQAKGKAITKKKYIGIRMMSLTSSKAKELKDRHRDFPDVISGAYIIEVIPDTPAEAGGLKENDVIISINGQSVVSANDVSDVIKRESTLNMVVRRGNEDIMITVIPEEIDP
Sequence of bovine pancreas trypsin (P00760 24-246): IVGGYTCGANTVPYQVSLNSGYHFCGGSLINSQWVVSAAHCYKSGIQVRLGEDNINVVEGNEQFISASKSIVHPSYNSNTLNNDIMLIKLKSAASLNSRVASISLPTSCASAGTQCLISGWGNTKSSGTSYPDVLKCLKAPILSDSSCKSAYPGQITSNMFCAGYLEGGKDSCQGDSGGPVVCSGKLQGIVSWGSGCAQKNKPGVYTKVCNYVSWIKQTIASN
Sequence of human HTRA3 (P83110 111-436): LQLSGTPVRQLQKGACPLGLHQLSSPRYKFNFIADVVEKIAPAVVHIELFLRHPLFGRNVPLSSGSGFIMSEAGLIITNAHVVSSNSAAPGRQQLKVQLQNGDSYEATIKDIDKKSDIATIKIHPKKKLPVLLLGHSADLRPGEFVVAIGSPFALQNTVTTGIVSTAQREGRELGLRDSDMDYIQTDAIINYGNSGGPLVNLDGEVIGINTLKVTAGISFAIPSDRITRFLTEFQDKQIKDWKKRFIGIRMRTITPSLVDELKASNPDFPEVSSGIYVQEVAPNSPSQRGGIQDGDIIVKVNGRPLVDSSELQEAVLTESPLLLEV
Sequence of human HTRA2 (O43464 134-458): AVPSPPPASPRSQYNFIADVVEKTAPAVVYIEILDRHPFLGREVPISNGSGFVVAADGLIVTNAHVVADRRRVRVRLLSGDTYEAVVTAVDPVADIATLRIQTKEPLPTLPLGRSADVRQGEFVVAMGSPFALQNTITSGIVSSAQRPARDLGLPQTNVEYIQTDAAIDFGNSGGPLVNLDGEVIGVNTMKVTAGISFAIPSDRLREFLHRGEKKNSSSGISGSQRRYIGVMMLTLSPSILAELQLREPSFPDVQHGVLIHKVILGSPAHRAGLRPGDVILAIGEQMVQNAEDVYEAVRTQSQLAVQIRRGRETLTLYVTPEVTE

For orientation: Ki means the dissociation constant of the complex between target and ligand, obtained from inhibition or displacement. A higher Ki goes with lower affinity. On to `CC(C)C[C@H]1C(=O)N(C)[C@@H](Cc2ccccc2)C(=O)N[C@@H](C(C)C)C(=O)O[C@H](C)[C@H](NC(=O)[C@H](Cc2ccccc2)NC(=O)[C@H](C)NC(=O)OCc2ccccc2)C(=O)N[C@@H](C(C)C)C(=O)N[C@H]2CC[C@@H](O)N1C2=O` [Ahp4], for which the inhibition constant (Ki) in assay [1] was > 50 µM; in assay [2] it was > 50 µM; in assay [3], > 50 µM; in assay [4] (Table 2), 0.33 ± 0.06 µM; in assay [5], 0.49 ± 0.11 µM; in assay [6], > 50 µM. Moreover, the “HTRA2 inhibition, in words” value in assay [5] was “sub-μM inhibition potencies”. Further, the “fold gain in HTRA2 potency relative to Ahp1” value in assay [5] was “more than ten-fold”.

For `CC(C)C[C@H]1C(=O)N(C)[C@@H](Cc2ccccc2)C(=O)N[C@@H](C(C)C)C(=O)O[C@H](C(C)C)[C@H](NC(=O)[C@H](C)NC(=O)[C@H](C)NC(=O)OCc2ccccc2)C(=O)N[C@@H](C(C)C)C(=O)N[C@H]2CC[C@@H](O)N1C2=O` [Ahp10], the “inhibition of HTRA1-mediated hBMSC osteogenesis (matrix mineralization)” value in assay [7] is on record as “significantly inhibited”. In addition, in assay [2], the “HTRA1 inhibition, in words” value is reported as “lowered the Ki”. Further, in assay [3], the inhibitory constant (Ki) was > 50 µM. Besides, the “elastase inhibition, in words” value in assay [4] is “lowered the Ki”. Besides, in assay [5], the “HTRA2 inhibition, in words” value is given as “sub-μM Ki” and the “fold gain in HTRA2 potency relative to Ahp1” value turned out to be 15 fold. For the same compound, in assay [6], the Ki was > 50 µM.

Turning to `CC(C)C[C@H]1C(=O)N(C)[C@@H](Cc2ccccc2)C(=O)N[C@@H](C(C)C)C(=O)O[C@H](C)[C@H](NC(=O)[C@H](C)NC(=O)[C@H](C)NC(=O)OCc2ccccc2)C(=O)N[C@@H](C2CC2)C(=O)N[C@H]2CC[C@@H](O)N1C2=O` [Ahp19], in assay [1], the “HTRA3 inhibition, in words” value is given as “enhanced inhibitory activity” and affinity was put at a Ki of 0.74 µM. Further, in assay [2], the “HTRA1 inhibition, in words” value is on record as “enhanced inhibitory activity” and affinity was put at a Ki of 1.24 µM. This compound had an inhibition constant Ki in assay [4] (Table 3) of 1.93 µM. Moreover, in assay [5], the “HTRA2 inhibition, in words” value is “enhanced inhibitory activity” and the Ki is 1.11 µM.

Take `CC(C)C[C@H]1C(=O)N(C)[C@@H](Cc2ccccc2)C(=O)N[C@@H](C(C)C)C(=O)O[C@H](C(C)C)[C@H](NC(=O)[C@H](C)NC(=O)CCc2ccccc2)C(=O)N[C@@H](C(C)C)C(=O)N[C@H]2CC[C@@H](O)N1C2=O` [Ahp11]: in assay [1], the “HTRA3 inhibition, in words” value is listed as “moderate inhibition”. Besides, in assay [5], the “HTRA2 inhibition, in words” value was “moderate inhibition”.

Take `CC(C)C[C@H]1C(=O)N(C)[C@@H](Cc2ccccc2)C(=O)N[C@@H](C(C)C)C(=O)O[C@H](c2ccccc2)[C@H](NC(=O)[C@H](C)NC(=O)[C@H](C)NC(=O)OCc2ccccc2)C(=O)N[C@@H](C(C)C)C(=O)N[C@H]2CC[C@@H](O)N1C2=O` [Ahp3]: the “HTRA3 inhibition, in words” value in assay [1] is on record as “inhibited”. The inhibition constant (Ki) was 3.1 ± 0.6 µM in assay [1]; > 50 µM in assay [2]; > 50 µM in assay [3]; 0.21 ± 0.06 µM in assay [4] (Table 2); 0.27 ± 0.07 µM in assay [5]; > 50 µM in assay [6].

Turning to `CC(C)C[C@H]1C(=O)N(C)[C@@H](Cc2ccccc2)C(=O)N[C@@H](C(C)C)C(=O)O[C@H](C)[C@H](NC(=O)[C@H](C)NC(=O)[C@H](C)NC(=O)OCc2ccccc2)C(=O)N[C@@H](C)C(=O)N[C@H]2CC[C@@H](O)N1C2=O` [Ahp13], the “HTRA3 inhibition, in words” value in assay [1] is on record as “enhanced inhibitory activity”. Besides, the “HTRA1 inhibition, in words” value in assay [2] is reported as “enhanced inhibitory activity”. For the same compound, in assay [5], the “HTRA2 inhibition, in words” value was “enhanced inhibitory activity”.

In the case of `CC[C@@H]1NC(=O)[C@@H](NC(=O)[C@H](C)NC(=O)[C@H](C)NC(=O)OCc2ccccc2)[C@@H](C)OC(=O)[C@H](C(C)C)NC(=O)[C@H](Cc2ccccc2)N(C)C(=O)[C@H](CC(C)C)N2C(=O)[C@H](CC[C@H]2O)NC1=O` [Ahp14], in assay [1], the “HTRA3 inhibition, in words” value is “enhanced inhibitory activity”. The “HTRA1 inhibition, in words” value in assay [2] was “enhanced inhibitory activity”. In assay [5], the “HTRA2 inhibition, in words” value is recorded as “enhanced inhibitory activity”.

As for `CC(C)C[C@H]1C(=O)N(C)[C@@H](Cc2ccccc2)C(=O)N[C@@H](C(C)C)C(=O)O[C@H](C)[C@H](NC(=O)[C@H](C)NC(=O)[C@H](C)NC(=O)OCc2ccccc2)C(=O)N[C@@H](Cc2ccccc2)C(=O)N[C@H]2CC[C@@H](O)N1C2=O` [Ahp2], the “HTRA3 inhibition, in words” value in assay [1] is listed as “significantly reduced”. The “HTRA1 inhibition, in words” value in assay [2] is “significantly reduced”. Also, in assay [3], the “chymotrypsin inhibition, in words” value is reported as “enhanced chymotrypsin inhibition” and the inhibitory constant (Ki) is 0.37 ± 0.08 µM. Further, the “elastase inhibition, in words” value in assay [4] is listed as “significantly reduced”. Besides, in assay [5], the “HTRA2 inhibition, in words” value was “significantly reduced”.

As to `CC(C)C[C@H]1C(=O)N(C)[C@@H](Cc2ccccc2)C(=O)N[C@@H](C(C)C)C(=O)O[C@H](C)[C@H](NC(=O)[C@H](C)NC(=O)[C@H](C)NC(=O)OCc2ccccc2)C(=O)N[C@@H](C(C)C)C(=O)N[C@H]2CC[C@@H](O)N1C2=O` [Ahp1], in assay [1], the “HTRA3 inhibition, in words” value is recorded as “inhibited”. Besides, the “HTRA1 inhibition, in words” value in assay [2] was “inhibited”. The inhibition constant Ki in assay [3] and in assay [6] was > 50 µM in each case.

As for `CC(C)C[C@@H]1NC(=O)[C@@H](NC(=O)[C@H](C)NC(=O)[C@H](C)NC(=O)OCc2ccccc2)[C@@H](C)OC(=O)[C@H](C(C)C)NC(=O)[C@H](Cc2ccccc2)N(C)C(=O)[C@H](CC(C)C)N2C(=O)[C@H](CC[C@H]2O)NC1=O` [Ahp9], the “HTRA2 inhibition, in words” value in assay [5] is given as “slightly better HTRA2 inhibitory properties than Ahp1”.

For the compound `CC(C)C[C@H]1C(=O)N(C)[C@@H](Cc2ccccc2)C(=O)N[C@@H](C(C)C)C(=O)O[C@H](C)[C@H](NC(=O)[C@H](C)NC(=O)[C@H](C)NC(=O)OCc2ccccc2)C(=O)N[C@@H](C(C)(C)C)C(=O)N[C@H]2CC[C@@H](O)N1C2=O` [Ahp20], the inhibitory constant (Ki) in assay [1] is 8.3 µM; in assay [2], > 50 µM; in assay [4] (Table 3) it was 4.32 µM; in assay [5], > 50 µM.

Take `CC(C)C[C@H]1C(=O)N(C)[C@@H](Cc2ccccc2)C(=O)N[C@@H](Cc2ccccc2)C(=O)O[C@H](C)[C@H](NC(=O)[C@H](C)NC(=O)[C@H](C)NC(=O)OCc2ccccc2)C(=O)N[C@@H](C(C)C)C(=O)N[C@H]2CC[C@@H](O)N1C2=O` [Ahp8]: in assay [1], the “HTRA3 inhibition, in words” value is “inhibited”. Further, the Ki in assay [1] was 9.5 ± 0.9 µM; in assay [2] it was > 50 µM; in assay [3] it was > 50 µM; in assay [4] (Table 2), 0.32 ± 0.05 µM; in assay [5] it was 2.3 ± 0.2 µM; in assay [6], > 50 µM.

For the compound `CC(C)[C@@H]1NC(=O)[C@@H](NC(=O)[C@H](C)NC(=O)[C@H](C)NC(=O)OCc2ccccc2)[C@@H](C)OC(=O)[C@H](C(C)C)NC(=O)[C@H](Cc2ccccc2)N(C)C(=O)[C@H](Cc2ccccc2)N2C(=O)[C@H](CC[C@H]2O)NC1=O` [Ahp6], the inhibitory constant (Ki) was > 50 µM in assay [1]; 10.3 ± 3 µM in assay [2]; > 50 µM in assay [3]; 8 ± 1.8 µM in assay [4] (Table 2); 2.1 ± 0.3 µM in assay [5]; > 50 µM in assay [6]. Besides, the “HTRA1 inhibition, in words” value in assay [2] is reported as “inhibited”.

Consider `CC(C)C[C@H]1C(=O)N(C)[C@@H](C)C(=O)N[C@@H](C(C)C)C(=O)O[C@H](C)[C@H](NC(=O)[C@H](C)NC(=O)[C@H](C)NC(=O)OCc2ccccc2)C(=O)N[C@@H](C(C)C)C(=O)N[C@H]2CC[C@@H](O)N1C2=O` [Ahp7], for which the Ki in assay [3] and in assay [6] was > 50 µM in each case. In addition, the “elastase inhibition, in words” value in assay [4] is on record as “low μM or even sub-μM”.
